# Measured values from patent US11459333B2, “Substituted pyrrolo[2,3-d]pyrimidines as JAK inhibitors” (Vimalan Biosciences, Inc., priority 2019, dated 2022).
# pIC50: −log10 of the molar value.
# How the values were obtained:
# Assay type in all cases: biochemical
# [1] = target: JAK1 (Homo sapiens (Human), UniProt P23458); assay: JAK/TYK2 Assay (Kinase Glo luminescence), JAK1; details: 7.5 nM enzyme, 2 uM ATP, 30 uM IRS-1, 1 hr
# Description: (§1) 10 mM test compound stock or 1 mM control compound stock (tofocitinib, ruxolitinib or staurosporine) in DMSO was diluted to 0.4 mM in DMSO. A 3-fold series dilution was then performed in DMSO to generate 10 different compound concentrations. The assay was carried out in 384-well white plate. 0.5 uL of 40× compound DMSO solution at different concentrations was mixed with 10 uL 2× enzyme prepared in reaction buffer (20 mM HEPES, 10 mM MgCl2, 0.01% Tween, 1 mM DTT, pH 7.5). 10 uL 2× substrate mixture prepared in reaction buffer was then added to start the reaction. A short spin was done to settle down all solutions to the bottom of the plate. Final concentrations of test compound in the reaction mixture were 10000, 3333, 1111, 370, 123, 41.2, 13.7, 4.57, 1.52 and 0.51 nM. Concentrations of control compound were ten times less. Enzymatic reaction was conducted at 25° C. for 1-2 hours. 10 uL of Kinase Glo Reagents was added to stop the reaction and generate the luminescent signal which was measured using Envision. Luminescence signal was inversely related to kinase activity. […] The mixture without any compound was the positive control.
# [2] = target: JAK2 (Homo sapiens (Human), UniProt O60674); assay: JAK/TYK2 Assay (Kinase Glo luminescence), JAK2; details: 0.8 nM enzyme, 2 uM ATP, 4 uM pEY, 1 hr
# Description: as §1
# [3] = target: JAK3 (Homo sapiens (Human), UniProt P52333); assay: JAK/TYK2 Assay (Kinase Glo luminescence), JAK3; details: 1.5 nM enzyme, 2 uM ATP, 4 uM pEY, 1 hr
# Description: as §1
# [4] = target: TYK2 (Homo sapiens (Human), UniProt P29597); assay: JAK/TYK2 Assay (Kinase Glo luminescence), TYK2; details: 9 nM enzyme, 2 uM ATP, 30 uM IRS-1, 1 hr
# Description: as §1
# Sequence of JAK2 (O60674 whole entry, species assumed): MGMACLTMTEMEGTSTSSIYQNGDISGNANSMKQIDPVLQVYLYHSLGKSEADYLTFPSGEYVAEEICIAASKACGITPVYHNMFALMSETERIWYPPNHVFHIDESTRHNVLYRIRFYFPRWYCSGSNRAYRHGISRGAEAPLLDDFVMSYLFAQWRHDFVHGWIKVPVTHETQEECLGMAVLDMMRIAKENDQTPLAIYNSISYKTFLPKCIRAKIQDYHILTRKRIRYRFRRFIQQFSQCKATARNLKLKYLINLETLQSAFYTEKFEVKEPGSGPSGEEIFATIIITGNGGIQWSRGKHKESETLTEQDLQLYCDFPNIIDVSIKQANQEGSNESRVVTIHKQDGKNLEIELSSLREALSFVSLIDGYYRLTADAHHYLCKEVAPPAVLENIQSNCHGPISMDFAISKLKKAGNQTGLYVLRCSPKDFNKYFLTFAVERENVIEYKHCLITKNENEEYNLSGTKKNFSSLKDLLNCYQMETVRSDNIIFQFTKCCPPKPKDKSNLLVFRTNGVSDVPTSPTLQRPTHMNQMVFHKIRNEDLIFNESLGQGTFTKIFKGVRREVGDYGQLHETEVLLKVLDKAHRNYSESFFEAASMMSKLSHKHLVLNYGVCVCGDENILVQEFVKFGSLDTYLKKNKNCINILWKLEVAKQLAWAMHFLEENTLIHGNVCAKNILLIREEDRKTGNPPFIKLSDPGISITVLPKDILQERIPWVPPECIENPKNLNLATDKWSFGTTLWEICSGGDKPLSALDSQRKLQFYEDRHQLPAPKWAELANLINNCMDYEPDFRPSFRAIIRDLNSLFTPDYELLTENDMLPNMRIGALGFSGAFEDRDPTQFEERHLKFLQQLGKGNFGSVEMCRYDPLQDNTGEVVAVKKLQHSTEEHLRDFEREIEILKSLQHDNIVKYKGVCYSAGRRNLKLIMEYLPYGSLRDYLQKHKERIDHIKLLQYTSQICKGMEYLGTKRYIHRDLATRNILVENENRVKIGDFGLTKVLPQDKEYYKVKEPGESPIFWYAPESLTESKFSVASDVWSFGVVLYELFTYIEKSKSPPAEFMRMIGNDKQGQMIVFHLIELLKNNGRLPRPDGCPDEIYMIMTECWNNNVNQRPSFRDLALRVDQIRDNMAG
# Sequence of JAK1 (P23458 whole entry, species assumed): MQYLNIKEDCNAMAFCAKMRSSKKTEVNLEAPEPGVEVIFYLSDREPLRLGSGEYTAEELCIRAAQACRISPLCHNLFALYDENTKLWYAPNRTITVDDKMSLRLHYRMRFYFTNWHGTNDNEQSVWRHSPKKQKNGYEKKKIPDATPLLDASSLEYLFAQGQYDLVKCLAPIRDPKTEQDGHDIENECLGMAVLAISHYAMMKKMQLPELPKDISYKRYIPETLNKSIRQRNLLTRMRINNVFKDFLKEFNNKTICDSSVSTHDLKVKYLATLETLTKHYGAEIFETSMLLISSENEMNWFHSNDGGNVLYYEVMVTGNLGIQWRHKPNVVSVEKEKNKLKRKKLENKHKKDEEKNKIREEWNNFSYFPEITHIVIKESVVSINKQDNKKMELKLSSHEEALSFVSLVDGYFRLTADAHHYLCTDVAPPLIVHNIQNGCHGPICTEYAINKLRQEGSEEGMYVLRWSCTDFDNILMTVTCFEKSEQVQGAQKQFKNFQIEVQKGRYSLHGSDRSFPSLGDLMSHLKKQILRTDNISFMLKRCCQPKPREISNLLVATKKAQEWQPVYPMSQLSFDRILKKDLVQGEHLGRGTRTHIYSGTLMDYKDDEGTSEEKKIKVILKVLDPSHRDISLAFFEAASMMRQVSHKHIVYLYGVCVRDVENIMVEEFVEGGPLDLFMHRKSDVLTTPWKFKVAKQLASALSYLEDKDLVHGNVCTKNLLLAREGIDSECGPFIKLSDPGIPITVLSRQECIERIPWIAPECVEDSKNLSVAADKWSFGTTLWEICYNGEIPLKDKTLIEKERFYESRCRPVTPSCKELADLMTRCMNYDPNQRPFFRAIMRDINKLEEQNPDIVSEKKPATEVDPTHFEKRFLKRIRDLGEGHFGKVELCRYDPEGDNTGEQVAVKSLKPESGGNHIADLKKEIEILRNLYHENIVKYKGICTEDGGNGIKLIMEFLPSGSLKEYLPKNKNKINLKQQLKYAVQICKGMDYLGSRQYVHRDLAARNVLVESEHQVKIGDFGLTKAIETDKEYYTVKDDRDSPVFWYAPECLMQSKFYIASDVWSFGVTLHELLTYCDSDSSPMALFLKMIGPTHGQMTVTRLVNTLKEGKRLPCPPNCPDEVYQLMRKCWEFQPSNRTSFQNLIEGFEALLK
# Sequence of TYK2 (P29597 whole entry, species assumed): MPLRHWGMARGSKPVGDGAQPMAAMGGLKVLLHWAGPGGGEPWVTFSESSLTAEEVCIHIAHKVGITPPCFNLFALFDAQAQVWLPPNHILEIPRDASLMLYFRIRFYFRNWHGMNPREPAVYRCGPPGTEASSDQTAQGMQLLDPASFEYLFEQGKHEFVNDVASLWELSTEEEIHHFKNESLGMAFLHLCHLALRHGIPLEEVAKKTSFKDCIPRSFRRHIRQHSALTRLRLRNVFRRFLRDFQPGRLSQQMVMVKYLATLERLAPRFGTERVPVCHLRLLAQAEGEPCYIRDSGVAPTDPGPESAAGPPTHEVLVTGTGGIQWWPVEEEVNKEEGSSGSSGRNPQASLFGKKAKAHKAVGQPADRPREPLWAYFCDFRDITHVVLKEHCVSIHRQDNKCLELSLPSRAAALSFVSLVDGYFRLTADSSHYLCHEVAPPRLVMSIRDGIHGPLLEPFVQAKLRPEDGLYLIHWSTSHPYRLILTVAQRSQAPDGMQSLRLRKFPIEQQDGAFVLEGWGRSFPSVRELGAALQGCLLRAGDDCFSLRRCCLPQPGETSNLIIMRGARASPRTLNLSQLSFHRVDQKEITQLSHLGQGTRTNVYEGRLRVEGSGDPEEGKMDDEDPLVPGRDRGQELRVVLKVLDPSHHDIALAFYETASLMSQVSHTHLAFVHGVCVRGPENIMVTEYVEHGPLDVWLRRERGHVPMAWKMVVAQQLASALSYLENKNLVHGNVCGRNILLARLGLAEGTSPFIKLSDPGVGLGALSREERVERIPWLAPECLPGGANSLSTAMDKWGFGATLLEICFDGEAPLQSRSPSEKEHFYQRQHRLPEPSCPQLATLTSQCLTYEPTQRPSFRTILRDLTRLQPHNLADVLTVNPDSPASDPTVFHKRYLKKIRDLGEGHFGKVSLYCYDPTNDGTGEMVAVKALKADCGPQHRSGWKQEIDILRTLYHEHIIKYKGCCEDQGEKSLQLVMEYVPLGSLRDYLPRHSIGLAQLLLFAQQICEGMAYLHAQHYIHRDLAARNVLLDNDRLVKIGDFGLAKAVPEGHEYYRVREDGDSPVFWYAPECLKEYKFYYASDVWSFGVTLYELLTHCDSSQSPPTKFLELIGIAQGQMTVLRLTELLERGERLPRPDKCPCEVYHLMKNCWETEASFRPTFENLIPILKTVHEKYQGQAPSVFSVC
# Sequence of JAK3 (P52333 whole entry, species assumed): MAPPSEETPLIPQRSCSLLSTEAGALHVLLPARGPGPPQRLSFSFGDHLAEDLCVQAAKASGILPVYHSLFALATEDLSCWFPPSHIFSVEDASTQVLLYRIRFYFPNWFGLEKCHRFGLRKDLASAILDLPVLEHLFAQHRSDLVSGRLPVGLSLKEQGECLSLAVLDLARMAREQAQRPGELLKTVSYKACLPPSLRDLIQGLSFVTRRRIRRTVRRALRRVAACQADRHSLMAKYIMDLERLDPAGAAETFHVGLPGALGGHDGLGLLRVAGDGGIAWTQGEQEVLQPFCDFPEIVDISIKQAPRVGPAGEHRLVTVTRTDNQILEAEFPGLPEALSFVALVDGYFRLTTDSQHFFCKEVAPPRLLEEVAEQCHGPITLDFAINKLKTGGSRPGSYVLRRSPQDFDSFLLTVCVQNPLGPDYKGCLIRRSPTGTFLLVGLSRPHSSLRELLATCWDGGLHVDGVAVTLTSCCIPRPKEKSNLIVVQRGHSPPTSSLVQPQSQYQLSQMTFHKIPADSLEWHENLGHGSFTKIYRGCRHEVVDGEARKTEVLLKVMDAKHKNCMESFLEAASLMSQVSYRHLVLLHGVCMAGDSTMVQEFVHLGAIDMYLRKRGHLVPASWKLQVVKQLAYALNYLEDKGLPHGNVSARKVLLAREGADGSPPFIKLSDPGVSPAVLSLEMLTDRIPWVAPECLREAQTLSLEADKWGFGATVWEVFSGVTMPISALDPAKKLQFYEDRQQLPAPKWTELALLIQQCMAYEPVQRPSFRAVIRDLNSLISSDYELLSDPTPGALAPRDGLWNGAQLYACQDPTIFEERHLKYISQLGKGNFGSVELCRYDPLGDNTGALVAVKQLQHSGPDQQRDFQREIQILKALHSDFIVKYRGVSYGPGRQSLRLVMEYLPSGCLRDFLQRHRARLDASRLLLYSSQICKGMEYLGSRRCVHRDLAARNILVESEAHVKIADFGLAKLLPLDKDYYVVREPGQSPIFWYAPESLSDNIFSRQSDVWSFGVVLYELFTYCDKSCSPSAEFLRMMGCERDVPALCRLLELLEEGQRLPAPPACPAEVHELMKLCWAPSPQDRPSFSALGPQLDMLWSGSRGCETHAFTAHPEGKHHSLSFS
smiles,measurement,setting,value
"CCOC(=O)[C@@H]1C[C@@H](OC(=O)Cn2cc(Nc3ncc4ccn(C[C@@H](CC)C(C)C)c4n3)cn2)CN1C [Compound 133, ethyl (2S,4R)-4-(2-(4-((7-((S)-2-ethyl-3-methylbutyl)-7H-pyrrolo[2,3-d]pyrimidin-2-yl)amino)-1H-pyrazol-1-yl)acetoxy)-1-methylpyrrolidine-2-carboxylate]",pIC50,[1],> 7.00
same,pIC50,[2],> 7.00
same,pIC50,[3],> 7.00
same,pIC50,[4],> 7.00
"CC[C@H](Cn1ccc2cnc(Nc3cnn(CC(=O)O[C@@H]4C[C@@H](C(=O)OC)N(C)C4)c3)nc21)C(C)C [Compound 131, methyl (2S,4R)-4-(2-(4-((7-((S)-2-ethyl-3-methylbutyl)-7H-pyrrolo[2,3-d]pyrimidin-2-yl)amino)-1H-pyrazol-1-yl)acetoxy)-1-methylpyrrolidine-2-carboxylate]",pIC50,[1],> 7.00
same,pIC50,[2],> 7.00
same,pIC50,[3],> 7.00
same,pIC50,[4],> 7.00
"CC[C@H](Cn1ccc2cnc(Nc3cnn(CC(=O)O[C@@H]4C[C@@H](C(=O)OC(C)C)N(C)C4)c3)nc21)C(C)C [Compound 134, isopropyl (2S,4R)-4-(2-(4-((7-((S)-2-ethyl-3-methylbutyl)-7H-pyrrolo[2,3-d]pyrimidin-2-yl)amino)-1H-pyrazol-1-yl)acetoxy)-1-methylpyrrolidine-2-carboxylate]",pIC50,[1],> 7.00
same,pIC50,[2],6.00 to 7.00
same,pIC50,[3],6.00 to 7.00
same,pIC50,[4],6.00 to 7.00
"CC[C@H](Cn1ccc2cnc(Nc3cnn(CC(=O)O[C@@H]4C[C@@H](C(=O)O)N(C)C4)c3)nc21)C(C)C [Compound 135, (2S,4R)-4-(2-(4-((7-((S)-2-ethyl-3-methylbutyl)-7H-pyrrolo[2,3-d]pyrimidin-2-yl)amino)-1H-pyrazol-1-yl)acetoxy)-1-methylpyrrolidine-2-carboxylic acid]",pIC50,[1],6.00 to 7.00
same,pIC50,[2],6.00 to 7.00
same,pIC50,[4],6.00 to 7.00
